# In patent US12678412B2, “Substituted tolans for the modulation of microbial colonization” (BioMendics, LLC, priority 2017, dated 2026):
# Legend:
# Format in all cases: cell-based
# [1] = test system: Pseudomonas aeruginosa ATCC 27312; assay: Colony forming assay, spread plate, Pseudomonas aeruginosa; details: for Reduction of PA counts: compared to vehicle, Tobramycin and untreated control
# Description: A fresh culture of pathogenic isolate was used in these examples. The bacterial strains used were Methicillin Resistant Staphylococcus aureus (MRSA USA 300), Pseudomonas aeruginosa ATCC 27312, and Candida albicans ATCC 64550.
# FIG. 5 illustrates the spread plate method used in these examples. In sum, agar plates were made, bacteria were diluted to 10^6 or 10^8 CFU/mL, bacteria and drug were mixed together and then plated. Glass spreading beads were used because they give a better bacterial spread. Plates were incubated for 24 hrs then the colonies that formed were counted.
# Proliferating cultures of Pseudomonas aeruginosa (PA, ATCC 27312) and Candida albicans (CA, ATCC 64550) were used in a colony forming assay. Freeze-dried bacteria cultures were recovered by swabbing a 3-cm diameter growth area and resuspending it to obtain a final inoculum suspension of approximately 10^6 CFU/mL. The concentration was confirmed using historical optical density measurements. Before bacteria challenge, the tolan compound BM3103 was suspended in 100% diethylene glycol monoethyl ether (Formulation C) with vehicle control consisting solely of the diethylene glycol monoethyl ether. Before plating, 100 μL of the final inoculum (10^6 CFU/mL) was mixed with 200 μL LB broth and 200 μL of BM3103 doses, vehicle, positive control (Tobramycin, 12 μg/mL for PA and 160 μg/mL for CA), or untreated control (phosphate buffered saline). The final plating concentration for the high, middle, and low BM3103 doses were 0.5%, 0.25%, and 0.1% w/v (22 mM, 11 mM, and 4 mM), respectively. The inoculum was plated on agar with centrimide and nalidixate (CN) supplement for PA (though sodium nalidixate or nalixic acid could also be used), and on Tryptic Soy Broth plates for CA experiments, at 37° C. for 24 h. Plates were photographed and counted. The experiment was done in triplicate.
# Colony counts for each treatment were tabulated and the Log of the colony forming units/mL (Log CFU/mL) were determined. The mean and standard deviation of the Log CFU/mL were calculated for each treatment. […] The medium and low dose groups reduced PA counts when compared to the vehicle, Tobramycin, and untreated control groups by about 5-fold.
# S. typhimurium TA1535 = assay: Dose range finding colony forming assay, strain TA1535 without metabolic activation
# Description: (§1) A series of dose range finding assays were performed with five bacterial strains, S. typhimurium TA97a, TA98, TA100, TA1535, and E. coli WP2 uvrA pKM101, with and without metabolic activation at three plates per dose. The following doses, along with positive and negative controls, were tested: 5000, 2500, 1250, 500, 250, 125, 50, 20, 10, 5, 2, 1, and 0.2 μg/plate. The plates were evaluated for toxicity (a decrease in plate counts with increasing dose and/or a visible thinning of the background lawn) and for precipitation of the test article. Metabolic activation was included in some samples by adding phenobarbital/benzoflavone-induced rat liver S9 fractions with cofactors (S9 mix). Prior to use, freshly thawed aliquots of rat liver S9 were mixed with a sterile cofactor mix. The S9 mix contains a 10% liver S9 concentration and was refrigerated or stored on ice until used. When testing with metabolic activation, the S9 mix was used in the assay tube in place of phosphate buffer.
# (§2) Dosing formulations were prepared to deliver all doses in a constant volume of 0.1 mL. The highest dose was prepared from test article weighed to the nearest 0.1 mg and the remaining formulations were prepared as serial dilutions from the high dose stock formulation. Using a permanent marking pen or computer printed labels, assay plates were labeled with the project and study numbers and the date. Assay plates and tubes were labeled with a unique identifier, which was used to match the assay tubes with the properly identified minimal glucose agar plate.
# (§3) The pre-incubation method was used to perform the assay. The assay mix consisted of 0.1 mL of the test article formulation or control article, 0.5 mL S9 mix or phosphate buffer, and 0.1 mL of bacterial culture. Assay tubes were incubated at 37±1° C. with gentle agitation for 20±1 minutes, then 2.0-2.5 mL top agar was added to the assay mix and the top agar/assay mix poured onto appropriately labeled minimal glucose agar plates. Once the top agar hardened, the plates were inverted and incubated at 37±1° C. for 48±2 hours. Plates were counted with the Sorcerer (v. 2.2)/Ames Study Manager (v. 1.2.4) system from Perceptive Instruments (Suffolk, UK). With this system, plate counts are automatically transferred from the plate imager (Sorcerer) to a Study Manager spreadsheet, and the data are stored in a secure manner on an Oracle database. Some plates were hand counted, e.g., if sample precipitate interferes with automatic counting or toxicity results in the formation of microcolonies, in which case, counts for these plates were entered into the spreadsheet manually. Plates were scored also with the extent of colonization by a post fix code.
# S. typhimurium TA98 = assay: Dose range finding colony forming assay, strain TA98 with metabolic activation
# Description: as §1, §2, §3
structure (smiles),measurement,setting,value
"COc1ccc(C#Cc2ccc(O)cc2)cc1 [BM3103, 4-hydroxy-4′-methoxytolan]",Dose dependence of effect on PA bacterial counts,"[1]; 0.1-0.5% w/v, Formulation C",dose dependent inhibitory effect
same,PA bacterial counts,"[1]; high dose 0.5% w/v, 22 mM, diethylene glycol monoethyl ether (Formulation C), 24 h, FIG. 7",no bacteria colonies
same,Reduction of PA counts,"[1]; low dose 0.1% w/v, 4 mM, Formulation C, 24 h",about 5 fold
same,Reduction of PA counts,"[1]; medium dose 0.25% w/v, 11 mM, Formulation C, 24 h",about 5 fold
same,Colony forming units/plate,S. typhimurium TA1535; 0.2 μg/plate,12.0 colony forming units/plate
same,Individual colony counts,S. typhimurium TA1535; 0.2 μg/plate,12
same,Colony forming units/plate,S. typhimurium TA1535; 1 μg/plate,11.0 colony forming units/plate
same,Individual colony counts,S. typhimurium TA1535; 1 μg/plate,11
same,Colony forming units/plate,S. typhimurium TA1535; 2 μg/plate,10.0 colony forming units/plate
same,Individual colony counts,S. typhimurium TA1535; 2 μg/plate,10
same,Colony forming units/plate,S. typhimurium TA1535; 5 μg/plate,6.0 colony forming units/plate
same,Individual colony counts,S. typhimurium TA1535; 5 μg/plate,6
same,Colony forming units/plate,S. typhimurium TA1535; 10 μg/plate,0.0 colony forming units/plate
same,Individual colony counts,S. typhimurium TA1535; 10 μg/plate,0
same,Plate postfix code (individual colony counts),S. typhimurium TA1535; 10 μg/plate,A T
same,Colony forming units/plate,S. typhimurium TA1535; 20 μg/plate,0.0 colony forming units/plate
same,Individual colony counts,S. typhimurium TA1535; 20 μg/plate,0
same,Colony forming units/plate,S. typhimurium TA1535; 50 μg/plate,0.0 colony forming units/plate
same,Individual colony counts,S. typhimurium TA1535; 50 μg/plate,0
same,Colony forming units/plate,S. typhimurium TA1535; 125 μg/plate,0.0 colony forming units/plate
same,Individual colony counts,S. typhimurium TA1535; 125 μg/plate,0
same,Colony forming units/plate,S. typhimurium TA1535; 250 μg/plate,0.0 colony forming units/plate
same,Individual colony counts,S. typhimurium TA1535; 250 μg/plate,0
same,Colony forming units/plate,S. typhimurium TA1535; 500 μg/plate,0.0 colony forming units/plate
same,Individual colony counts,S. typhimurium TA1535; 500 μg/plate,0
same,Colony forming units/plate,S. typhimurium TA1535; 1250 μg/plate,0.0 colony forming units/plate
same,Individual colony counts,S. typhimurium TA1535; 1250 μg/plate,0
same,Plate postfix code (individual colony counts),S. typhimurium TA1535; 1250 μg/plate,A P
same,Colony forming units/plate,S. typhimurium TA1535; 2500 μg/plate,0.0 colony forming units/plate
same,Individual colony counts,S. typhimurium TA1535; 2500 μg/plate,0
same,Plate postfix code (individual colony counts),S. typhimurium TA1535; 2500 μg/plate,A P
same,Colony forming units/plate,S. typhimurium TA1535; 5000 μg/plate,0.0 colony forming units/plate
same,Individual colony counts,S. typhimurium TA1535; 5000 μg/plate,0
same,Plate postfix code (individual colony counts),S. typhimurium TA1535; 5000 μg/plate,A P
same,Colony forming units/plate,S. typhimurium TA98; 1 μg/plate,8.0 colony forming units/plate
same,Individual colony counts,S. typhimurium TA98; 1 μg/plate,8
same,Colony forming units/plate,S. typhimurium TA98; 2 μg/plate,18.0 colony forming units/plate
same,Individual colony counts,S. typhimurium TA98; 2 μg/plate,18
same,Colony forming units/plate,S. typhimurium TA98; 5 μg/plate,16.0 colony forming units/plate
same,Individual colony counts,S. typhimurium TA98; 5 μg/plate,16
same,Colony forming units/plate,S. typhimurium TA98; 10 μg/plate,16.0 colony forming units/plate
same,Individual colony counts,S. typhimurium TA98; 10 μg/plate,16
same,Colony forming units/plate,S. typhimurium TA98; 20 μg/plate,0.0 colony forming units/plate
same,Individual colony counts,S. typhimurium TA98; 20 μg/plate,0
same,Colony forming units/plate,S. typhimurium TA98; 50 μg/plate,0.0 colony forming units/plate
same,Individual colony counts,S. typhimurium TA98; 50 μg/plate,0
same,Colony forming units/plate,S. typhimurium TA98; 125 μg/plate,0.0 colony forming units/plate
same,Individual colony counts,S. typhimurium TA98; 125 μg/plate,0
same,Colony forming units/plate,S. typhimurium TA98; 250 μg/plate,0.0 colony forming units/plate
same,Individual colony counts,S. typhimurium TA98; 250 μg/plate,0
same,Colony forming units/plate,S. typhimurium TA98; 500 μg/plate,0.0 colony forming units/plate
same,Individual colony counts,S. typhimurium TA98; 500 μg/plate,0
same,Plate postfix code (individual colony counts),S. typhimurium TA98; 500 μg/plate,A P
same,Colony forming units/plate,S. typhimurium TA98; 1250 μg/plate,0.0 colony forming units/plate
same,Individual colony counts,S. typhimurium TA98; 1250 μg/plate,0
same,Plate postfix code (individual colony counts),S. typhimurium TA98; 1250 μg/plate,A P
same,Colony forming units/plate,S. typhimurium TA98; 2500 μg/plate,0.0 colony forming units/plate
same,Individual colony counts,S. typhimurium TA98; 2500 μg/plate,0
same,Plate postfix code (individual colony counts),S. typhimurium TA98; 2500 μg/plate,A P
same,Colony forming units/plate,S. typhimurium TA98; 5000 μg/plate,0.0 colony forming units/plate
same,Individual colony counts,S. typhimurium TA98; 5000 μg/plate,0
same,Plate postfix code (individual colony counts),S. typhimurium TA98; 5000 μg/plate,A P
